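A five-concentration, 48-hour dose response in 96-well plates underlies each endpoint, interpolated linearly between surrounding concentrations. Abbreviation: GI50, concentration required for 50% inhibition of growth. TGI marks complete inhibition of growth.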
How the values were obtained:
Assay in all cases: DTP human tumour cell line panel, 48 h
786-0 renal = test system: 786-0 renal
A498 renal = test system: A498 renal
A549 NSCLC = test system: A549 NSCLC
ACHN renal = test system: ACHN renal
BT-549 breast = test system: BT-549 breast
CAKI-1 renal = test system: CAKI-1 renal
CCRF-CEM leukemia = test system: CCRF-CEM leukemia
COLO 205 colon = test system: COLO 205 colon
DU-145 prostate = test system: DU-145 prostate
EKVX NSCLC = test system: EKVX NSCLC
HCC-2998 colon = test system: HCC-2998 colon
HCT-116 colon = test system: HCT-116 colon
HCT-15 colon = test system: HCT-15 colon
HL-60(TB) leukemia = test system: HL-60(TB) leukemia
HOP-62 NSCLC = test system: HOP-62 NSCLC
HOP-92 NSCLC = test system: HOP-92 NSCLC
HS 578T breast = test system: HS 578T breast
HT29 colon = test system: HT29 colon
IGROV1 ovarian = test system: IGROV1 ovarian
K-562 leukemia = test system: K-562 leukemia
KM12 colon = test system: KM12 colon
M14 melanoma = test system: M14 melanoma
MALME-3M melanoma = test system: MALME-3M melanoma
MCF7 breast = test system: MCF7 breast
MDA-MB-231 breast = test system: MDA-MB-231 breast
MDA-MB-435 = test system: MDA-MB-435
MOLT-4 leukemia = test system: MOLT-4 leukemia
NCI-H226 lung = test system: NCI-H226 lung
NCI-H460 lung = test system: NCI-H460 lung
NCI-H522 lung = test system: NCI-H522 lung
NCI/ADR-RES ovarian = test system: NCI/ADR-RES ovarian
OVCAR-3 ovarian = test system: OVCAR-3 ovarian
OVCAR-4 ovarian = test system: OVCAR-4 ovarian
OVCAR-5 ovarian = test system: OVCAR-5 ovarian
OVCAR-8 ovarian = test system: OVCAR-8 ovarian
PC-3 prostate = test system: PC-3 prostate
RPMI-8226 leukemia = test system: RPMI-8226 leukemia
RXF 393 renal = test system: RXF 393 renal
SF-268 CNS = test system: SF-268 CNS
SF-295 CNS = test system: SF-295 CNS
SF-539 CNS = test system: SF-539 CNS
SK-MEL-2 melanoma = test system: SK-MEL-2 melanoma
SK-MEL-28 melanoma = test system: SK-MEL-28 melanoma
SK-MEL-5 melanoma = test system: SK-MEL-5 melanoma
SK-OV-3 ovarian = test system: SK-OV-3 ovarian
SN12C renal = test system: SN12C renal
SNB-19 CNS = test system: SNB-19 CNS
SNB-75 CNS = test system: SNB-75 CNS
SW-620 colon = test system: SW-620 colon
T-47D breast = test system: T-47D breast
TK-10 renal = test system: TK-10 renal
U251 CNS = test system: U251 CNS
UACC-257 melanoma = test system: UACC-257 melanoma
UACC-62 melanoma = test system: UACC-62 melanoma
UO-31 renal = test system: UO-31 renal
LOX IMVI melanoma = test system: LOX IMVI melanoma
NCI-H23 lung = test system: NCI-H23 lung
SR leukemia = test system: SR leukemia

NC(=O)c1cccc(-n2ccc3cc(NC(=O)Nc4ccc(N5CCOCC5)c(C(F)(F)F)c4)ccc32)n1
GI50 (786-0 renal): 0.67 µM | TGI (786-0 renal): 40.6 µM | GI50 (A498 renal): 2.01 µM | TGI (A498 renal): 7.32 µM | GI50 (A549 NSCLC): 2.64 µM | TGI (A549 NSCLC): > 100 µM | GI50 (ACHN renal): 2.7 µM | TGI (ACHN renal): 8.59 µM | GI50 (BT-549 breast): 1.79 µM | TGI (BT-549 breast): 5.04 µM | GI50 (CAKI-1 renal): 1.9 µM | TGI (CAKI-1 renal): 9.41 µM | GI50 (CCRF-CEM leukemia): 0.741 µM | TGI (CCRF-CEM leukemia): 4.74 µM | GI50 (COLO 205 colon): 2.06 µM | TGI (COLO 205 colon): 5.51 µM | GI50 (DU-145 prostate): 3.01 µM | TGI (DU-145 prostate): > 100 µM | GI50 (EKVX NSCLC): 2.9 µM | TGI (EKVX NSCLC): > 100 µM | GI50 (HCC-2998 colon): 3.15 µM | GI50 (HCT-116 colon): 1.91 µM | TGI (HCT-116 colon): 8.57 µM | GI50 (HCT-15 colon): 1.59 µM | TGI (HCT-15 colon): 6.61 µM | GI50 (HL-60(TB) leukemia): 2.05 µM | TGI (HL-60(TB) leukemia): 7.5 µM | GI50 (HOP-62 NSCLC): 1.5 µM | TGI (HOP-62 NSCLC): 4.1 µM | GI50 (HOP-92 NSCLC): 2.1 µM | TGI (HOP-92 NSCLC): 4.82 µM | GI50 (HS 578T breast): 0.835 µM | TGI (HS 578T breast): 4.83 µM | GI50 (HT29 colon): 2.34 µM | TGI (HT29 colon): > 100 µM | GI50 (IGROV1 ovarian): 2.25 µM | TGI (IGROV1 ovarian): 6.94 µM | GI50 (K-562 leukemia): 0.946 µM | TGI (K-562 leukemia): > 100 µM | GI50 (KM12 colon): 0.397 µM | TGI (KM12 colon): 4.41 µM | GI50 (M14 melanoma): 2.25 µM | TGI (M14 melanoma): 6.91 µM | GI50 (MALME-3M melanoma): 1.59 µM | TGI (MALME-3M melanoma): 4.34 µM | GI50 (MCF7 breast): 0.124 µM | TGI (MCF7 breast): 3.16 µM | GI50 (MDA-MB-231 breast): 2.56 µM | TGI (MDA-MB-231 breast): 7.96 µM | GI50 (MDA-MB-435): 2.03 µM | TGI (MDA-MB-435): 7.19 µM | GI50 (MOLT-4 leukemia): 1.65 µM | TGI (MOLT-4 leukemia): 9.01 µM | GI50 (NCI-H226 lung): 1.74 µM | TGI (NCI-H226 lung): 6.6 µM | GI50 (NCI-H460 lung): 2.22 µM | TGI (NCI-H460 lung): 6.51 µM | GI50 (NCI-H522 lung): 2.07 µM | TGI (NCI-H522 lung): 7.82 µM | GI50 (NCI/ADR-RES ovarian): 2.65 µM | TGI (NCI/ADR-RES ovarian): 35.4 µM | GI50 (OVCAR-3 ovarian): 1.99 µM | TGI (OVCAR-3 ovarian): 5.37 µM | GI50 (OVCAR-4 ovarian): 2.25 µM | TGI (OVCAR-4 ovarian): 7.09 µM | GI50 (OVCAR-5 ovarian): 2.95 µM | TGI (OVCAR-5 ovarian): > 100 µM | GI50 (OVCAR-8 ovarian): 1.48 µM | TGI (OVCAR-8 ovarian): 8.38 µM | GI50 (PC-3 prostate): 1.67 µM | TGI (PC-3 prostate): 6.2 µM | GI50 (RPMI-8226 leukemia): 0.505 µM | TGI (RPMI-8226 leukemia): 2.29 µM | GI50 (RXF 393 renal): 0.245 µM | TGI (RXF 393 renal): 0.743 µM | GI50 (SF-268 CNS): 2.67 µM | TGI (SF-268 CNS): 8.94 µM | GI50 (SF-295 CNS): 0.419 µM | TGI (SF-295 CNS): 2.31 µM | GI50 (SF-539 CNS): 0.616 µM | TGI (SF-539 CNS): 2.79 µM | GI50 (SK-MEL-2 melanoma): 2.11 µM | TGI (SK-MEL-2 melanoma): 5.09 µM | GI50 (SK-MEL-28 melanoma): 2.04 µM | TGI (SK-MEL-28 melanoma): 8.83 µM | GI50 (SK-MEL-5 melanoma): 1.51 µM | TGI (SK-MEL-5 melanoma): 3.47 µM | GI50 (SK-OV-3 ovarian): 2.73 µM | TGI (SK-OV-3 ovarian): 8.95 µM | GI50 (SN12C renal): 2.19 µM | TGI (SN12C renal): 7.36 µM | GI50 (SNB-19 CNS): 1.86 µM | TGI (SNB-19 CNS): 6.55 µM | GI50 (SNB-75 CNS): 0.69 µM | TGI (SNB-75 CNS): 4.01 µM | GI50 (SW-620 colon): 2.87 µM | TGI (SW-620 colon): > 100 µM | GI50 (T-47D breast): 0.463 µM | TGI (T-47D breast): 3.02 µM | GI50 (TK-10 renal): 2.75 µM | TGI (TK-10 renal): 8.29 µM | GI50 (U251 CNS): 1.25 µM | TGI (U251 CNS): 12.1 µM | GI50 (UACC-257 melanoma): 2.9 µM | TGI (UACC-257 melanoma): 9.04 µM | GI50 (UACC-62 melanoma): 1.65 µM | TGI (UACC-62 melanoma): 4.14 µM | GI50 (UO-31 renal): 1.84 µM | TGI (UO-31 renal): 5.21 µM

COc1cc2c3c(n(CCCN4CCCCC4)c(=O)c2cc1OC)-c1cc2c(cc1C3=O)OCO2
GI50 (CCRF-CEM leukemia): 0.13 µM | TGI (CCRF-CEM leukemia): 0.988 µM | GI50 (COLO 205 colon): 1.11 µM | TGI (COLO 205 colon): 2.43 µM | GI50 (DU-145 prostate): 1.37 µM | TGI (DU-145 prostate): 2.68 µM | GI50 (HCC-2998 colon): 1.22 µM | TGI (HCC-2998 colon): 2.47 µM | GI50 (HCT-116 colon): 0.15 µM | TGI (HCT-116 colon): 0.309 µM | GI50 (HCT-15 colon): 1.26 µM | TGI (HCT-15 colon): 2.6 µM | GI50 (HL-60(TB) leukemia): 0.341 µM | TGI (HL-60(TB) leukemia): 0.965 µM | GI50 (HS 578T breast): 2.07 µM | TGI (HS 578T breast): 4.77 µM | GI50 (HT29 colon): 1.28 µM | TGI (HT29 colon): 2.67 µM | GI50 (K-562 leukemia): 0.179 µM | TGI (K-562 leukemia): 0.499 µM | GI50 (KM12 colon): 1.51 µM | TGI (KM12 colon): 2.85 µM | GI50 (LOX IMVI melanoma): 0.716 µM | TGI (LOX IMVI melanoma): 2.15 µM | GI50 (M14 melanoma): 1.59 µM | TGI (M14 melanoma): 3.05 µM | GI50 (MALME-3M melanoma): 1.65 µM | TGI (MALME-3M melanoma): 3.45 µM | GI50 (MCF7 breast): 0.145 µM | TGI (MCF7 breast): 2.05 µM | GI50 (MDA-MB-231 breast): 1.21 µM | TGI (MDA-MB-231 breast): 2.59 µM | GI50 (MDA-MB-435): 1.66 µM | TGI (MDA-MB-435): 3.22 µM | GI50 (MOLT-4 leukemia): 0.0423 µM | TGI (MOLT-4 leukemia): 2.02 µM | GI50 (NCI-H226 lung): 1.54 µM | TGI (NCI-H226 lung): 3.69 µM | GI50 (NCI-H23 lung): 1.53 µM | TGI (NCI-H23 lung): 3.01 µM | GI50 (NCI-H522 lung): 0.932 µM | TGI (NCI-H522 lung): 2.46 µM | GI50 (OVCAR-3 ovarian): 1.63 µM | TGI (OVCAR-3 ovarian): 3.02 µM | GI50 (OVCAR-5 ovarian): 1.84 µM | TGI (OVCAR-5 ovarian): 3.29 µM | GI50 (OVCAR-8 ovarian): 1.68 µM | TGI (OVCAR-8 ovarian): 4.17 µM | GI50 (PC-3 prostate): 1.26 µM | TGI (PC-3 prostate): 2.69 µM | GI50 (RPMI-8226 leukemia): 0.333 µM | TGI (RPMI-8226 leukemia): 1.47 µM | GI50 (SF-539 CNS): 1.46 µM | TGI (SF-539 CNS): 2.83 µM | GI50 (SK-MEL-2 melanoma): 12.4 µM | TGI (SK-MEL-2 melanoma): 28.3 µM | GI50 (SK-MEL-5 melanoma): 1.6 µM | TGI (SK-MEL-5 melanoma): 3.01 µM | GI50 (SN12C renal): 1.59 µM | TGI (SN12C renal): 3.05 µM | GI50 (SR leukemia): 0.143 µM | TGI (SR leukemia): 0.893 µM | GI50 (SW-620 colon): 0.193 µM | TGI (SW-620 colon): 1.35 µM | GI50 (T-47D breast): 1.58 µM | TGI (T-47D breast): 3.56 µM | GI50 (UACC-257 melanoma): 1.76 µM | TGI (UACC-257 melanoma): 3.96 µM | GI50 (UACC-62 melanoma): 1.38 µM | TGI (UACC-62 melanoma): 2.83 µM

From PubChem BioAssay (NCI)
